Measurements from PubChem BioAssay (NCI).
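In this assay, cells in 96-well plates receive the compound at five concentrations for 48 hours. Endpoints are linearly interpolated between the surrounding concentrations. TGI marks complete inhibition of growth.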

Key:
Assay in all cases: DTP human tumour cell line panel, 48 h
[1] = tested on: IGROV1 ovarian
[2] = tested on: SK-MEL-28 melanoma
[3] = tested on: MDA-N
[4] = tested on: M14 melanoma
[5] = tested on: UACC-257 melanoma
[6] = tested on: HOP-62 NSCLC
[7] = tested on: RPMI-8226 leukemia
[8] = tested on: RXF 393 renal
[9] = tested on: PC-3 prostate
[10] = tested on: UACC-62 melanoma
[11] = tested on: SF-295 CNS
[12] = tested on: SNB-19 CNS
[13] = tested on: HS 578T breast
[14] = tested on: K-562 leukemia
[15] = tested on: OVCAR-4 ovarian
[16] = tested on: HCT-116 colon
[17] = tested on: DU-145 prostate
[18] = tested on: SF-539 CNS
[19] = tested on: MOLT-4 leukemia
[20] = tested on: MDA-MB-231 breast
[21] = tested on: NCI-H522 lung
[22] = tested on: SW-620 colon
[23] = tested on: TK-10 renal
[24] = tested on: HL-60(TB) leukemia
[25] = tested on: OVCAR-3 ovarian
[26] = tested on: SK-MEL-5 melanoma
[27] = tested on: NCI-H460 lung
[28] = tested on: LOX IMVI melanoma
[29] = tested on: KM12 colon
[30] = tested on: HT29 colon
[31] = tested on: SK-OV-3 ovarian
[32] = tested on: NCI/ADR-RES ovarian
[33] = tested on: SN12C renal
[34] = tested on: OVCAR-5 ovarian
[35] = tested on: NCI-H23 lung
[36] = tested on: MDA-MB-435
[37] = tested on: ACHN renal
[38] = tested on: HCC-2998 colon
[39] = tested on: 786-0 renal
[40] = tested on: OVCAR-8 ovarian
[41] = tested on: SF-268 CNS
[42] = tested on: SR leukemia
[43] = tested on: MALME-3M melanoma
[44] = tested on: COLO 205 colon
[45] = tested on: MCF7 breast
[46] = tested on: T-47D breast
[47] = tested on: HCT-15 colon
[48] = tested on: U251 CNS
[49] = tested on: SK-MEL-2 melanoma
[50] = tested on: CCRF-CEM leukemia
[51] = tested on: UO-31 renal
[52] = tested on: SNB-75 CNS
[53] = tested on: NCI-H226 lung
[54] = tested on: A549 NSCLC
[55] = tested on: HOP-92 NSCLC
[56] = tested on: CAKI-1 renal
[57] = tested on: A498 renal
[58] = tested on: BT-549 breast
[59] = tested on: EKVX NSCLC

CCOC(=O)Cn1c(=O)c2nc(SC)sc2n(-c2ccccc2)c1=S
TGI [1]: > 100 µM | TGI [2]: > 100 µM | TGI [3]: > 100 µM | TGI [4]: 70.4 µM | TGI [5]: > 100 µM | TGI [6]: 57.1 µM | TGI [7]: > 100 µM | TGI [8]: 52.2 µM | TGI [9]: 84.4 µM | TGI [10]: 11.5 µM | TGI [11]: > 100 µM | TGI [12]: 30.6 µM | TGI [13]: 34.4 µM | TGI [14]: > 100 µM | TGI [15]: 35.2 µM | TGI [16]: > 100 µM | TGI [17]: > 100 µM | TGI [18]: 31.6 µM | TGI [19]: > 100 µM | TGI [20]: 72.9 µM | TGI [21]: > 100 µM | TGI [22]: > 100 µM | TGI [23]: 60.1 µM | TGI [24]: 59.4 µM | TGI [25]: 97.7 µM | TGI [26]: > 100 µM | TGI [27]: 99.4 µM | TGI [28]: > 100 µM | TGI [29]: 94.9 µM | TGI [30]: > 100 µM | TGI [31]: 60.7 µM | TGI [32]: > 100 µM | TGI [33]: > 100 µM | TGI [34]: > 100 µM | TGI [35]: > 100 µM | TGI [36]: > 100 µM | TGI [37]: 43.4 µM | TGI [38]: > 100 µM | TGI [39]: 30.9 µM | TGI [40]: 95.8 µM | TGI [41]: > 100 µM | TGI [42]: > 100 µM | TGI [43]: 60.2 µM | TGI [44]: > 100 µM | TGI [45]: > 100 µM | TGI [46]: > 100 µM | TGI [47]: > 100 µM | TGI [48]: 29.3 µM | TGI [49]: 63.1 µM | TGI [50]: > 100 µM | TGI [51]: 15 µM | TGI [52]: 12.5 µM | TGI [53]: 36.6 µM | TGI [54]: > 100 µM | TGI [55]: 21 µM

CN(C)CCCNc1ncnc2c1ncn2C1OC(CO)C(O)C1O (configuration not stated)
TGI [56]: > 100 µM | TGI [1]: > 100 µM | TGI [2]: > 100 µM | TGI [3]: > 100 µM | TGI [4]: > 100 µM | TGI [5]: > 100 µM | TGI [6]: > 100 µM | TGI [7]: > 100 µM | TGI [8]: > 100 µM | TGI [9]: > 100 µM | TGI [10]: > 100 µM | TGI [11]: > 100 µM | TGI [12]: > 100 µM | TGI [14]: > 100 µM | TGI [15]: > 100 µM | TGI [16]: > 100 µM | TGI [17]: > 100 µM | TGI [18]: > 100 µM | TGI [19]: > 100 µM | TGI [57]: > 100 µM | TGI [20]: > 100 µM | TGI [21]: > 100 µM | TGI [22]: > 100 µM | TGI [23]: > 100 µM | TGI [24]: > 100 µM | TGI [25]: > 100 µM | TGI [26]: > 100 µM | TGI [27]: > 100 µM | TGI [28]: > 100 µM | TGI [29]: > 100 µM | TGI [30]: > 100 µM | TGI [31]: > 100 µM | TGI [32]: > 100 µM | TGI [33]: > 100 µM | TGI [34]: > 100 µM | TGI [35]: > 100 µM | TGI [36]: > 100 µM | TGI [37]: > 100 µM | TGI [38]: > 100 µM | TGI [39]: > 100 µM | TGI [40]: > 100 µM | TGI [41]: > 100 µM | TGI [42]: > 100 µM | TGI [58]: > 100 µM | TGI [59]: > 100 µM | TGI [43]: > 100 µM | TGI [44]: > 100 µM | TGI [45]: > 100 µM | TGI [46]: > 100 µM | TGI [47]: > 100 µM | TGI [48]: > 100 µM | TGI [49]: > 100 µM | TGI [50]: > 100 µM | TGI [51]: > 100 µM | TGI [53]: > 100 µM | TGI [54]: > 100 µM | TGI [55]: > 100 µM
